Consider one compound from publication PMC10852989, “Combining cisplatin and a STING agonist into one molecule for metalloimmunotherapy of cancer” (National Science Review, 2024).

The test system of the test is Pan02 tumors. The test is described as follows: scRNA-seq of Pan02 tumors. Type of test: in vivo, mouse. Conditions: scRNA-seq at treatment endpoint, versus untreated. From the text:
ScRNA-seq. Tumors were excised from individual mice after treatment using a dissecting microscope and pooled. The tumors were cryopreserved in FBS + 10% DMSO. Samples were subsequently thawed, washed, sorted to isolate living cells and then performed on the 10X Genomics 5’ Chromium v2.0 platform according to the manufacturer’s instructions. Libraries were generated per the manufacturer’s protocol and sequenced on an Illumina HiSeq 2500 with the “rapid run” mode according to the standard 10X Genomics protocol. Data analysis was conducted by Singleron Biotech. Co. Ltd. using Cellranger and R.
Cell type annotation. The cell type identity of each cluster was determined from the expression of canonical markers found in the DEGs using SynEcoSys database. Heatmaps displaying the expression of markers used to identify each cell type were generated by Seurat v3.12 DoHeatmap.

Take `COc1cc2cc(C(=O)CCC(=O)[O][Pt]([NH2])([NH2])([OH])([Cl])[Cl])sc2cc1OC` [conjugate I]: the “frequencies of CD8 effector T, CD4 T and NK cells” value is on record as “increased”; the “percentage of tumor cells” value is “decreased”.
